# According to US20020091095A1, “Modulation of Fas and FasL expression” (priority 1999, published 2002):
# How the values were obtained:
# Fas [1] = assay: Fas expression at the cell surface by flow cytometry, UMUC-3 cells; assay type: cell-based, human; details: UMUC-3 bladder cancer cells, 100 μg/ml sequence, 48 h, treated vs control cells
# In short: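 Cells at 2×10^5 cells/ml treated 48 h at 37° C, 5% CO2 with 100 μg/ml (5.5 μM) sequence or 0 μg/ml control. Surface Fas (FITC) and FasL (PE) antibody-stained and read by flow cytometry. Values are % increase over control cells.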
# FasL [2] = assay: FasL expression at the cell surface by flow cytometry, OVCAR-3 cells; assay type: cell-based, human; details: OVCAR-3 ovarian cancer cells, 100 μg/ml sequence, 48 h, treated vs control cells
# In short: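 OVCAR-3 cells (2×10^5 cells/ml) incubated 48 h at 37° C with 0 or 100 μg/ml (5.5 μM) of the sequences. Surface Fas and FasL stained with FITC- and PE-conjugated monoclonal antibodies, read by flow cytometry; values are % increase over untreated controls.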
# FasL [3] = assay: FasL expression at the cell surface by flow cytometry, SK-OV-3 cells; assay type: cell-based, human; details: SK-OV-3 ovarian cancer cells, 100 μg/ml sequence, 48 h, treated vs control cells
# In short: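 Cells at 2×10^5 cells/ml were treated 48 h at 37 °C, 5% CO2 with 100 μg/ml (5.5 μM) sequence or none. Surface Fas and FasL were stained with FITC anti-Fas and PE anti-FasL antibodies and read by flow cytometry. Values are % increase in expression over untreated cells.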
# Fas [4] = assay: Fas expression at the cell surface by flow cytometry, T-24 cells; assay type: cell-based, human; details: T-24 bladder cancer cells, 100 μg/ml sequence, 48 h, treated vs control cells
# In short: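 T-24 bladder cancer cells (p53-mutant, human) at 1.0×10^5 cells/ml were exposed for 48 h at 37 °C to 100 μg/ml […] of 6-base sequences or to no sequence. Fas and FasL were stained with FITC- and PE-labelled monoclonal antibodies and read by flow cytometry. Values are % increase versus untreated cells.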
# Fas [5] = assay: Fas expression at the cell surface by flow cytometry, PBMCs; assay type: cell-based, human; details: 100 μg/ml sequence, 48 h, treated vs control cells
# In short: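 PBMCs isolated by Ficoll-Hypaque gradient were seeded at 2×10^5 cells/ml and exposed for 48 h at 37 °C to 0 or 100 μg/ml (5.5 μM) of the sequences. Surface Fas and FasL were stained with FITC anti-Fas and PE anti-FasL antibodies and analysed by flow cytometry, reported as % increase over untreated cells.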
# [6] = test system: UMUC-3 bladder cancer cells; assay: Inhibition of UMUC-3 bladder cancer cell proliferation (MTT reduction); assay type: cell-based, human; details: for % INHIBITION of cell proliferation: UMUC-3, 48 h
# Procedure: UMUC-3 bladder cancer cells were incubated for 48 hours with 0.00, 0.02 and 0.20 μg/ml of agonistic anti-Fas monoclonal antibodies (clone CH-11: Coulter-Immunotech, Marseille, France) +0 or 10 μg/ml of SEQ ID NO:5. Cell proliferation was measured using dimethylthiazol-diphenyltetrazolium (MTT) reduction (Mosman et al. J. Immunol. Methods 65:55, 1983). MTT was measured at a wavelength of 570 nm using a multiplate spectrophotometer reader (ELX800, Bio-TEK Instruments Inc., Winooski, Vt.).
# EAE = EAE in (SJL/J×PL/J) F1 mice induced with myelin basic protein; assay type: in vivo
# Procedure: Female (SJL/J×PL/J) F1 mice are injected subcutaneously in both femoral regions with an emulsion containing 0.5 mg of myelin basic protein (MBP) mixed with complete Freund's adjuvant. After 24 h, 400 ng of Bordetella pertussis toxin is administered intraperitoneally. On the day of onset (day 0), group 1 mice receive saline, group 2 mice receive 1, 10 or 100 mg/kg of SEQ. ID NO:5, group 3 mice receive 1, 10 or 100 mg/kg of SEQ. ID NO:16, group 4 mice receive 1, 10 or 100 mg/kg of SEQ. ID NO:17, group 5 mice receive 1, 10 or 100 mg/kg of SEQ. ID NO: 18, group 6 mice receive anti-Fas antibodies, group 7 mice receive 1, 10 or 100 mg/kg of SEQ. ID NO:5 +anti-Fas antibodies, group 8 mice receive 1, 10 or 100 mg/kg of SEQ. ID NO:16 +anti-Fas antibodies, group 9 receive 1, 10 or 100 mg/kg of SEQ. ID NO:17 +anti-Fas antibodies, group 10 mice receive 1, 10 or 100 mg/kg of SEQ. ID NO: 18 +anti-Fas antibodies for 3 days by intracistemal administration (20 μg/day). In these different groups, anti-Fas antibodies are administered at any dose in the range of about 0.003 to about 0.3 mg/kg. […] The efficacy of the SEQ. ID NO:5, the SEQ. ID NO: 16 and the SEQ. ID NO: 17 is dose-dependent.
sequence,measurement,setting,value
GGGTGG [SEQ ID NO:5],% INCREASE Fas,Fas [1],67%
same,% INCREASE FasL,FasL [2],9%
same,% INCREASE FasL,FasL [3],−31%
same,% INCREASE Fas,Fas [4],80%
same,% INCREASE Fas,Fas [5],3%
same,effect on the inhibitory activity of agonistic anti-Fas antibodies on cell proliferation,"[6]; UMUC-3, 0.02 and 0.2 μg/ml anti-Fas antibodies, 10 μg/ml sequence",potentiated
same,% INHIBITION of cell proliferation,[6]; 10 μg/ml sequence + anti-Fas antibodies 0.02 μg/ml,38%
same,% INHIBITION of cell proliferation,[6]; 10 μg/ml sequence + anti-Fas antibodies 0.02 μg/ml (third column),44%
same,% INHIBITION of cell proliferation,"[6]; 10 μg/ml sequence, anti-Fas antibodies 0.0 μg/ml",23%
same,"efficacy, dose dependence","EAE; 1, 10 or 100 mg/kg",dose-dependent
same,progression of EAE,"EAE; sequence 1, 10 or 100 mg/kg + anti-Fas antibodies, for 3 days",least progression of EAE
